Ki and k on data for 15 compounds are collected here from ChEMBL document CHEMBL1128759, “Inhibition of interleukin-1 converting enzyme by N-acyl-aspartyl aryloxymethyl ketones” (Bioorg Med Chem Lett, 1995).

Common to all, as to format: cell-based
One assay deals with T1, Caspase-1 (Homo sapiens, UniProt P29466).
T1 sequence (P29466 whole entry): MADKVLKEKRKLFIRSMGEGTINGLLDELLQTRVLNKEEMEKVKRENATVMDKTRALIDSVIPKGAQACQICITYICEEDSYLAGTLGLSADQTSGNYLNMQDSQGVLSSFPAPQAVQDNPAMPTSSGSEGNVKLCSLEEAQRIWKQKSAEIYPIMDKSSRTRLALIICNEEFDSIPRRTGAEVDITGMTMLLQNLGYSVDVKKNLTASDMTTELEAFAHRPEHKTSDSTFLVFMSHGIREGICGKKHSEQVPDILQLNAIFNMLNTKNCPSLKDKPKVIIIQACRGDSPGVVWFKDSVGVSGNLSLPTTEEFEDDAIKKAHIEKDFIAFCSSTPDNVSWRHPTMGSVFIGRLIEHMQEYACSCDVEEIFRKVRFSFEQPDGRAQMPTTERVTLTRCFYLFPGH
Description: Inhibition of IL-1 beta converting enzyme (ICE) in human blood monocytes expressed as Ki.

Assay [1] deals with T2, Caspase-1 (Homo sapiens) (UniProt P29466).
T2 sequence (whole entry): T1 sequence (P29466 whole entry)
Description: Compound was tested for inhibition of IL-1 beta converting enzyme (ICE) in human blood monocytes expressed as Ki.

Assay [2] has as its target T2, Caspase-1 (Homo sapiens). Description: Inhibition of IL-1 beta converting enzyme (ICE) in human blood monocytes expressed as Kon.

For the compound `C=CCOC(=O)N[C@@H](CC(=O)O)C(=O)CCc1cc2ccccc2cc1-c1ncc[nH]1`, on Caspase-1, the Ki – broadly, the dissociation constant of the complex between target and ligand, obtained from inhibition or displacement – was over 100 µM.

`C=CCOC(=O)NC(CC(=O)O)C(=O)COc1ccc(-c2ccccc2)cc1C(N)=O` (centres undefined) displayed a k on at Caspase-1 (Homo sapiens) [1] of 3400 M⁻¹ s⁻¹.

In the case of `C=CCOC(=O)NC(CC(=O)O)C(=O)COc1ccccc1C(N)=O` (centres undefined), the Ki at Caspase-1 turned out to be 3.8 µM.

`C=CCOC(=O)NC(CC(=O)O)C(=O)COc1cc2ccccc2cc1C(N)=O` (centres undefined) returned a Ki at Caspase-1 of 0.32 µM. Also, the k on on Caspase-1 (Homo sapiens) [2] is 5600 M⁻¹ s⁻¹.

`C=CCOC(=O)NC(CC(=O)O)C(=O)COc1cc2ccccc2cc1C(=O)N(C)C` (centres undefined) had a Ki on Caspase-1 of over 28 µM.

`CC(C)[C@H](NC(=O)OCc1ccccc1)C(=O)N[C@@H](C)C(=O)N[C@@H](CC(=O)O)C(=O)COc1cc2ccccc2cc1C(N)=O` displayed a Ki on Caspase-1 of 1.7 µM. This compound yielded a k on on Caspase-1 (Homo sapiens) [2] of 430000 M⁻¹ s⁻¹.

`C=CCOC(=O)NC(CC(=O)O)C(=O)COc1cc(-c2ccccc2)ccc1C(N)=O` (centres undefined) had an inhibition constant (Ki) at Caspase-1 of 2 µM.

For the compound `C=CCOC(=O)NC(CC(=O)O)C(=O)COc1c(C(N)=O)ccc2ccccc12` (centres undefined), the Ki on Caspase-1 was over 22 µM.

Take `C=CCOC(=O)NC(CC(=O)O)C(=O)COc1cc2ccccc2cc1C#N` (centres undefined): the k on at Caspase-1 (Homo sapiens) [2] worked out at 4500 M⁻¹ s⁻¹.

The compound `C=CCOC(=O)N[C@@H](CC(=O)O)C(=O)COc1cc2ccccc2cc1-c1ncc[nH]1` came in with a Ki at Caspase-1 of 0.09 µM. This compound also gave a k on at Caspase-1 (Homo sapiens) [2] of 12000 M⁻¹ s⁻¹.

For the compound `CC(C)[C@H](NC(=O)OCc1ccccc1)C(=O)N[C@@H](C)C(=O)N[C@@H](CC(=O)O)C(=O)COc1ccccc1`, the inhibition constant Ki on Caspase-1 worked out at 4.9 µM. On Caspase-1 (Homo sapiens) [2], this compound registered a k on of 1.1 M⁻¹ s⁻¹.

The compound `C=CCOC(=O)NC(CC(=O)O)C(=O)COc1ccc2ccccc2c1` (centres undefined) returned a Ki on Caspase-1 of 4 µM.

In the case of `C=CCOC(=O)NC(CC(=O)O)C(=O)COc1ccccc1` (centres undefined), the affinity at Caspase-1 corresponds to a Ki of 2.7 µM.

Turning to `C=CCOC(=O)NC(CC(=O)O)C(=O)COc1ccc2ccccc2c1C(N)=O` (centres undefined), at Caspase-1, the inhibition constant (Ki) was over 18 µM.

In turn, `C=CCOC(=O)NC(CC(=O)O)C(=O)COc1cc2ccccc2cc1C(=O)Nc1ccccc1` (centres undefined) yielded a k on at Caspase-1 (Homo sapiens) [2] of 4100 M⁻¹ s⁻¹.
